The values below are quoted from earlier work in patent US20220226232A1, “Dental formulation comprising xylitol and propolis” (SERVIDENCE INC., priority 2021, published 2022).

For the data set the following is noted: oral exposition.

As for `OC[C@@H](O)[C@H](O)[C@@H](O)CO` [xylitol], the prevention of otitis is on record as 20%.
